Assay results published in patent publication US12036194B1, “Methods of administering solriamfetol to lactating women” (Axsome Malta Ltd., priority 2022, dated 2024).
Counter-ions that a name gives are not always drawn. Like-named read-outs stand apart in the source and are kept apart here.

Tests used:
[1] = animals tested; cited from earlier work
[2] = Phase 4 open-label single-dose study: pharmacokinetics of solriamfetol in breast milk of healthy postpartum women; assay type: in vivo, human; details: for Kp / AUC(0-inf) / AUC(0-t) / Cmax / half-life / Tmax: female, human, po, 150 mg; for Kp: breast milk / plasma
Protocol: (§1) A Phase 4, open-label, single-dose study to evaluate the pharmacokinetics (PK) of solriamfetol in the breast milk and plasma of healthy postpartum women following oral administration of a 150 mg solriamfetol tablet.
(§2) The study was conducted in 6 healthy adult lactating women who were between 15 and 37 weeks postpartum and were administered a single oral dose of SUNOSI 150 mg. SUNOSI was excreted in breast milk with a milk to plasma AUC ratio of approximately 2:1. […] The average amount that would be passed to the infant was estimated to be 0.59 mg over 24 hours, which is about 4.0% of the maternal dose on a weight-adjusted basis. The data from the lactation study indicate that SUNOSI is transferred to breastmilk in nursing mothers, with the relative infant dose (RID) is approximately 4% of the maternal weight-adjusted dosage. Data to assess the effects of SUNOSI on a breastfed infant or on milk production is not provided. The developmental and health benefits of breastfeeding should be considered along with the mother's clinical need for SUNOSI and any potential adverse effects on the breastfed child from SUNOSI or from the underlying maternal condition. Breastfed infants should be monitored for adverse reactions, such as agitation, insomnia, anorexia, and reduced weight gain.
(§3) On Day −1, eligible subjects underwent the baseline procedures. On Day 1, 2 hours after a light breakfast, subjects were to receive a single dose of solriamfetol 150 mg with 240 mL of water. Subjects had to fast for approximately 4 hours after the first dose; water was allowed except for 1 hour before and 1 hour after dosing with the study drug.
(§4) Pharmacokinetic analysis of breast milk obtained from both breasts (by pumping) was evaluated prior to dose administration and at intervals up to 72 hours postdose. Blood samples were also collected for plasma solriamfetol quantitation and PK analysis predose and at timepoints up to 72 hours postdose. Solriamfetol breast milk and plasma concentrations were measured using validated bioanalytical methods. Safety was assessed throughout the study by 12-lead ECG, vital sign measurements, the Columbia-Suicide Severity Rating Scale (C-SSRS), and the incidence of adverse events (AE).
Breast milk collection: Solriamfetol concentration in breast milk and plasma was evaluated based on samples collected prior to and postdose on Days 1 to 4. Breast milk was collected from both breasts, using electronic breast pumps, during the following intervals: From −2 to 0 at predose and at 0 to 2, 2 to 4, 4 to 8, 8 to 12, 12 to 18, 18 to 24, 24 to 32, 32 to 40, 40 to 48, and 48 to 72 hours postdose on Day 1. The midpoint of each breast milk collection interval was used as the time variable.
Breast milk was collected as often as needed during the assigned intervals; however, at the end of each interval, breast milk was pumped from both breasts and collected. At the end of each collection interval, all milk expressed from both breasts during that interval was pooled. The milk was thoroughly mixed by gently inverting the collection vessel 10 times to ensure homogeneity in milk composition. The weight and volume of the collected milk during each interval was also recorded.
(§5) Serial blood samples (4 mL) were collected and dispensed into labeled K2EDTA tubes. The actual time of blood collection for all samples was recorded on the eCRF. Solriamfetol concentration in breast milk and plasma were determined using a validated bioanalytical method (LC-MS/MS) at Origin Bioanalytical Laboratory. The analytical range (lower limit of quantitation [LLOQ] to upper limit of quantitation) for plasma solriamfetol was 8.42 to 4210.00 ng/mL, and breast milk solriamfetol was 10.0 to 8000 ng/mL.
Pharmacokinetic parameters were derived with Phoenix® WinNonlin® Version 8.3 (Certara, Inc., Princeton, New Jersey, USA) and/or SAS© Version 9.4 (SAS Institute, Inc., Cary, North Carolina, USA). […]

[3] = cited from earlier work
[4] = Phase 4 open-label single-dose study: pharmacokinetics of solriamfetol in plasma of healthy postpartum women; assay type: in vivo, human; details: for AUC(0-inf) / AUC(0-t) / Cmax / Vd/F / half-life / Tmax: female, human, po, 150 mg
Protocol: as §1, §2, §3, §4
Blood samples for plasma PK evaluation were collected at the following time points: Predose, 1, 1.5, 3, 6, 8.5, 10, 13, 15, 21, 24, 28, 36, 44, and 72 hours following dosing on Day 1. General study methodology is outlined in Table 6.
as §5
Pharmacokinetic parameters were derived with Phoenix® WinNonlin® Version 8.3 (Certara, Inc., Princeton, New Jersey, USA) and/or SAS© Version 9.4 (SAS Institute, Inc., Cary, North Carolina, USA).
Pharmacokinetic concentrations and parameters were summarized using descriptive statistics, including n, arithmetic mean, SD, coefficient of variation (CV %), median, min, max, Geometric mean (Geo-mean) and the geometric coefficient of variation (Geo-CV %). For the PK parameter tmax, only n, median, minimum, and maximum was presented.

[5] = breast milk, single oral 150 mg solriamfetol tablet, N = 6, hydrochloride
[6] = breast milk, single oral 150 mg, N = 6
[7] = breast milk, single oral 150 mg, N = 6, hydrochloride
[8] = breast milk, single oral 150 mg, N = 6, listed as solriamfetol, hydrochloride
[9] = over 72 hours, single oral 150 mg
[10] = single oral 150 mg solriamfetol tablet, N = 6
[11] = single oral 150 mg solriamfetol tablet, N = 6, hydrochloride
[12] = single oral 150 mg solriamfetol tablet, N = 6, listed as solriamfetol, hydrochloride

## NC(=O)OC[C@H](N)Cc1ccccc1 [Solriamfetol, (R)-2-amino-3-phenylpropyl carbamate (APC) hydrochloride]
[1]
  absorption and oral bioavailability: rapid absorption and high oral bioavailability
  exposure (maximum serum concentration and AUC) versus dose: dose-proportional exposure
[2]; AUC in breast milk divided by AUC in plasma, single oral 150 mg, N = 6
  Milk:Plasma Ratio, Arithmetic Mean (CV %): 2.136 (35.8)
[2]; after dosing, single oral 150 mg
  time by which near complete excretion in breast milk was observed: ≤ 24 h
[2]; amount excreted in breast milk over 72 hours, single oral 150 mg, N = 6
  Amilk, Geometric Mean: 0.5651 mg
[2]; amount excreted in breast milk over 72 hours, single oral 150 mg, N = 6, hydrochloride
  Amilk, Arithmetic Mean (CV %): 0.6880 (67.9) mg
[2]; amount excreted in breast milk over 72 hours, single oral 150 mg, N = 6, listed as solriamfetol, hydrochloride
  Amilk, Arithmetic Mean (CV %): 0.6880 mg
[2]; breast milk, single oral 150 mg solriamfetol tablet, N = 6
  Lambda_z, Arithmetic Mean (CV %): 0.1446 (18.8) 1/h
[2]; [5]
  t1/2, Arithmetic Mean (CV %): 4.954 (21.4) h
  tmax, Median (min, max): 1.12 h
[2]; [6]
  Daily Infant Dose, Geometric Mean: 0.5856 mg
  Relative Infant Dose, Geometric Mean: 4.030%
[2]; [7]
  Daily Infant Dose, Arithmetic Mean (CV %): 0.6927 (63.5) mg
  Relative Infant Dose, Arithmetic Mean (CV %): 4.602 (60.6) %
[2]; [8]
  Daily Infant Dose, Arithmetic Mean (CV %): 0.6927 mg
  Relative Infant Dose, Arithmetic Mean (CV %): 4.602%
[2]; estimated, over 24 hours, single oral 150 mg
  average amount that would be passed to the infant: 0.59 mg
[2]; excreted by 8 hours
  share of the total amount excreted in breast milk over 72 hours: approximately 78%
[2]; excreted by 24 hours
  share of the total amount excreted in breast milk over 72 hours: ~98%
[2]; AUC in breast milk divided by AUC in plasma, single oral 150 mg, N = 6, read-out: Milk:Plasma Ratio, Geometric Mean
  Kp: 2.05
[2]; breast milk vs plasma, single oral 150 mg, read-out: solriamfetol exposure/concentrations (Cmax, AUCs) in breast milk relative to plasma
  Kp: ~2
[2]; breast milk, breast milk, single oral 150 mg solriamfetol tablet, N = 6, read-out: AUC0-inf, Geometric Mean
  AUC(0-inf): 12900 ng·h/mL
[2]; breast milk, breast milk, single oral 150 mg solriamfetol tablet, N = 6, read-out: AUC0-t, Arithmetic Mean (CV %)
  AUC(0-t): 13700 ng·h/mL
[2]; breast milk, breast milk, single oral 150 mg solriamfetol tablet, N = 6, read-out: AUC0-t, Geometric Mean
  AUC(0-t): 12800 ng·h/mL
[2]; breast milk, breast milk, single oral 150 mg solriamfetol tablet, N = 6, read-out: Cmax, Arithmetic Mean (CV %)
  Cmax: 2070 ng/mL
[2]; breast milk, breast milk, single oral 150 mg solriamfetol tablet, N = 6, read-out: Cmax, Geometric Mean
  Cmax: 1860 ng/mL
[2]; breast milk, breast milk, single oral 150 mg solriamfetol tablet, N = 6, read-out: t1/2, Arithmetic Mean (CV %) (converted)
  half-life: ~5 h
[2]; breast milk, breast milk, single oral 150 mg solriamfetol tablet, N = 6, read-out: t1/2, Geometric Mean (converted)
  half-life: 4.87 h
[2]; breast milk, breast milk, single oral 150 mg solriamfetol tablet, N = 6, read-out: tmax, Median (min, max)
  Tmax: ~1.1 h
[2]; breast milk, breast milk, single oral 150 mg solriamfetol tablet, healthy postpartum women N = 6, read-out: AUC0-inf, Arithmetic Mean (CV %)
  AUC(0-inf): 13800 ng·h/mL
[2]; breast milk, breast milk, single oral 150 mg, read-out: t1/2 (approximate) (converted)
  half-life: ~5 h
[2]; breast milk, breast milk, single oral 150 mg, read-out: tmax range
  Tmax: 1 to 3 h
[2]; further analysis, based on nominal infant weight of 6 kg, maternal single oral 150 mg
  daily infant dose: 0.112 mg/kg
[2]; [9]
  Arithmetic mean±SD amount excreted in breast milk: 0.6880 ± 0.4672 mg
  cumulative median amount excreted in breast milk: 0.67 mg
[3]; fed versus fasted
  PK in fed versus fasted subjects: satisfied the criteria for bioequivalence
[3]; in vivo
  systemic elimination half-life: 5.0 to 7.6 h
[3]; once daily dosing
  estimated accumulation ratio: 1.06
[4]; single oral 150 mg solriamfetol tablet, N = 6, read-out: AUC0-inf, Geometric Mean
  AUC(0-inf): 6340 ng·h/mL
[4]; single oral 150 mg solriamfetol tablet, N = 6, read-out: AUC0-t, Arithmetic Mean (CV %)
  AUC(0-t): 6440 ng·h/mL
[4]; single oral 150 mg solriamfetol tablet, N = 6, read-out: AUC0-t, Geometric Mean
  AUC(0-t): 6240 ng·h/mL
[4]; single oral 150 mg solriamfetol tablet, N = 6, read-out: Cmax, Arithmetic Mean (CV %)
  Cmax: 905 ng/mL
[4]; single oral 150 mg solriamfetol tablet, N = 6, read-out: Cmax, Geometric Mean
  Cmax: 892 ng/mL
[4]; single oral 150 mg solriamfetol tablet, N = 6, read-out: Vz/F, Arithmetic Mean (CV %)
  Vd/F: 169 L
[4]; single oral 150 mg solriamfetol tablet, N = 6, read-out: Vz/F, Geometric Mean
  Vd/F: 162 L
[4]; single oral 150 mg solriamfetol tablet, N = 6, read-out: t1/2, Arithmetic Mean (CV %) (converted)
  half-life: 4.8 h
[4]; single oral 150 mg solriamfetol tablet, N = 6, read-out: t1/2, Geometric Mean (converted)
  half-life: 4.75 h
[4]; single oral 150 mg solriamfetol tablet, N = 6, read-out: tmax, Median (min, max)
  Tmax: 1.25 h
[4]; single oral 150 mg solriamfetol tablet, healthy postpartum women N = 6, read-out: AUC0-inf, Arithmetic Mean (CV %)
  AUC(0-inf): 6540 ng·h/mL
[4]; single oral 150 mg, read-out: t1/2 (approximate) (converted)
  half-life: ~5 h
[4]; single oral 150 mg, read-out: tmax range
  Tmax: 1 to 3 h
[4]; [10]
  CL/F, Geometric Mean: 23.66 L/h
  Lambda_z, Arithmetic Mean (CV %): 0.1478 (19.1) 1/h
  Lambda_z, Geometric Mean: 0.1459 h⁻¹
[4]; [11]
  CL/F, Arithmetic Mean (CV %): 24.40 (26.8) L/h
  t1/2, Arithmetic Mean (CV %): 4.804 (15.2) h
[4]; [12]
  CL/F, Arithmetic Mean (CV %): 24.40 L/h
  tmax, Median (min, max): 1 h
